# From patent US10093631B2, “Bifunctional compounds and use for reducing uric acid levels” (Acquist LLC, priority 2014, dated 2018)
# Read-outs that look alike come from different tables or passages of the source.
# How the values were obtained:
# xanthine oxidase = xanthine oxidase (Homo sapiens (Human), UniProt P47989); test: Fluorescence-based xanthine oxidase inhibition assay; assay type: biochemical
# URAT1 (SLC22A12) = URAT1 (SLC22A12) (Homo sapiens (Human), UniProt Q96S37); test: URAT1 (SLC22A12) cellular uptake assay, 3H-orotate transport in stably transfected URAT-1/CHO cells; assay type: cell-based
# [1] = triplicate, 10 concentrations, read-out: Xanthine Oxidase IC50
# [2] = URAT-1/CHO cells, 3H-orotate uptake, 7 concentrations 0.01 to 150 μM, read-out: URAT1 IC50
# Sequence of URAT1 (SLC22A12) (Q96S37 whole entry): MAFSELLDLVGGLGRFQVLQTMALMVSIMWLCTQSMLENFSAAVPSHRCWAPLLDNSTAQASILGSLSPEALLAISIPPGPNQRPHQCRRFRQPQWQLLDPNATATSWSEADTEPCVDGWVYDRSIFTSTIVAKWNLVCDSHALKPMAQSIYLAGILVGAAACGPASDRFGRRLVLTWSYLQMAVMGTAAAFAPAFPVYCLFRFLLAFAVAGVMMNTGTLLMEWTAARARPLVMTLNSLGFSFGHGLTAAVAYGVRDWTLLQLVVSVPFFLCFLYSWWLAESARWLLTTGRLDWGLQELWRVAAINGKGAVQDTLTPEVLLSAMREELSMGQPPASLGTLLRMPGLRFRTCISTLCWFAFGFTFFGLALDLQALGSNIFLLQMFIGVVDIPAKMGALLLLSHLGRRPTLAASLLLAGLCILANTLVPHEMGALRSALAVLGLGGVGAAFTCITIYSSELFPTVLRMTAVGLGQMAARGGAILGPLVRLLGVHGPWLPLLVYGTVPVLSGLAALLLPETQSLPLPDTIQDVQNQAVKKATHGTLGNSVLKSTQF
# Sequence of xanthine oxidase (P47989 whole entry, species assumed): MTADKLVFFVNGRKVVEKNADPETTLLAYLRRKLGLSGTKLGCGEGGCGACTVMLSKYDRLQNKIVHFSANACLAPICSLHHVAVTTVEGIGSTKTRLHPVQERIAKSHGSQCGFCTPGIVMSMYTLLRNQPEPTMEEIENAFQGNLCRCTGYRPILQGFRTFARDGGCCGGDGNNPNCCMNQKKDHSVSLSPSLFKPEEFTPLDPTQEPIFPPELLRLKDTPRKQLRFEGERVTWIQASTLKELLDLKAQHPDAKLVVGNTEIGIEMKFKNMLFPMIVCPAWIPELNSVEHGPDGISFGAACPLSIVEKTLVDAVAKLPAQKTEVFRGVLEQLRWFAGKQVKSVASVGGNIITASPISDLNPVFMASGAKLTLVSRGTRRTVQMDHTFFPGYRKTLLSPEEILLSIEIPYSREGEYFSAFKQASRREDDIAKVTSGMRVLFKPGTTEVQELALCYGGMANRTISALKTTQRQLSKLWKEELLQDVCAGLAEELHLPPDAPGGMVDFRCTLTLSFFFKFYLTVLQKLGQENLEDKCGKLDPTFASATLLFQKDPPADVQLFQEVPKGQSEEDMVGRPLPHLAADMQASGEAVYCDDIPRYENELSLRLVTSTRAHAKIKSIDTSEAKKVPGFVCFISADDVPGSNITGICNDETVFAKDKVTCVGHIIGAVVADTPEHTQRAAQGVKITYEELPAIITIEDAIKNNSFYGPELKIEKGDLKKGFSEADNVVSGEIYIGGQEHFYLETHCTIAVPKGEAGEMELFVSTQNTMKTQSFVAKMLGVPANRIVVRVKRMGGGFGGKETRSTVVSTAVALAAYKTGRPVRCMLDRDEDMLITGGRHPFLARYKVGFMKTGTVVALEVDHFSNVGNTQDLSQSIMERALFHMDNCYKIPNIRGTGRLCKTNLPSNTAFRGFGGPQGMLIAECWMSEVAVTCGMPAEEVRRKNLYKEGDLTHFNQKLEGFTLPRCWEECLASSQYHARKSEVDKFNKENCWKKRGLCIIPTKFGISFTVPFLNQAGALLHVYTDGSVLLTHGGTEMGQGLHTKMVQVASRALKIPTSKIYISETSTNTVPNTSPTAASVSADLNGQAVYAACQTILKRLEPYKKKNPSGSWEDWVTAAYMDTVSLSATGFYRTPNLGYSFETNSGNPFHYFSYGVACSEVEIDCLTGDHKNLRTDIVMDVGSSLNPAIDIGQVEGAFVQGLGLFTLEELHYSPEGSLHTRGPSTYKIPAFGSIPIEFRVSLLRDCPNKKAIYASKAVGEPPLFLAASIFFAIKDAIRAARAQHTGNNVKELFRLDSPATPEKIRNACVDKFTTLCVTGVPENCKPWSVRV
Structure (SMILES),IC50 (xanthine oxidase) [µM],IC50 (URAT1 (SLC22A12)) [µM],IC50 (xanthine oxidase; [1]) [µM],IC50 (URAT1 (SLC22A12); [2]) [µM]
"O=C(Nc1ccc(F)cc1)c1c(O)[nH]c(=S)[nH]c1=O [Formula (Ib), N-(4′-fluorophenyl)-1,2,3,4-tetrahydro-6-hydroxy-4-oxo-2-thioxo-5-pyrimidinecarboxamide]",< 10,< 10,,
"O=C(Nc1ccc(O)cc1F)c1c(O)[nH]c(=S)[nH]c1=O [Formula (Ic), N-(2′-fluoro-4′-hydroxyphenyl)-1,2,3,4-tetrahydro-6-hydroxy-4-oxo-2-thioxo-5-pyrimidinecarboxamide]",< 10,< 10,5.6,5.83
"O=C(Nc1cc(F)c(O)c(F)c1)c1c(O)[nH]c(=O)[nH]c1=O [Formula (Ig), N-(3,5-difluoro-4-hydroxyphenyl)-6-hydroxy-2,4-dioxo-1,2,3,4-tetrahydropyrimidine-5-carboxamide]",< 10,< 10,1.92,3.55
"O=C(Nc1ccc(O)cc1F)c1c(O)[nH]c(=O)[nH]c1=O [Formula (Ih), N-(2-fluoro-4-hydroxyphenyl)-6-hydroxy-2,4-dioxo-1,2,3,4-tetrahydropyrimidine-5-carboxamide]",,,5.97,1.79
"O=C(Nc1ccncc1)c1c(O)[nH]c(=O)[nH]c1=O [Formula (Ik), 6-hydroxy-2,4-dioxo-N-(pyridin-4-yl)-1,2,3,4-tetrahydropyrimidine-5-carboxamide]",,,14.3,5.3
